Data from patent US7615356B2, “Ion channel assay methods” (Vertex Pharmaceuticals (San Diego) LLC, priority 2000, dated 2009).
“Also recorded” adds a separate entry of the source. Like-named read-outs stand apart in the source and are kept apart here.

Tests used:
[1] = target: voltage dependent sodium channel (NaV1) endogenously expressed in wild type CHO cells (Cricetulus griseus, UniProt A0A8C2MK62)
HL5 cardiac muscle cells = assay type: cell-based
[2] = target: endogenous NaV channels of Chinese Hamster Ovary cells (Nav 1.2a) (Cricetulus griseus, UniProt A0A8C2MK62); assay: Use-dependent block, repetitive electrical stimulation at 1 Hz, CHO cells; assay type: cell-based
N-type calcium channel = N-type calcium channel (Homo sapiens, UniProt Q00975); assay: Hexyl oxonol assay for use-dependent blockers of CaV; assay type: cell-based; conditions: 5 μM
Description: Assays can also be developed using fast membrane potential sensors, such as DISBAC6(3) and CC2-DMPE voltage-sensitive FRET probes, to detect use-dependent compounds for voltage-gated Ca targets. The following illustrative example is for an N-type calcium channel using hardware compatible with 96 well plates.
Prepare a solution of 2× CC2DMPE and DISBAC6(3) by Vortexing together 10 mM CC2DMPE (in DMSO) and 10 mM DISBAC6(3) (in DMSO) with an equivalent volume of 10% pluronic (in DMSO). Vortex in required amount of bath. Each cell plate will require 5 ml of this solution. Wash plate with a plate washer leaving a residual volume of 50 μl. Add 50 μL of 2× CC2DMPE to wells. Resulting concentrations of dyes will be 4 μM CC2-DMPE and 1.25 μM DISBAC6(3). Stain for 30 minutes in the dark at RT. The test compounds are prepared at 2× concentration in extracellular ringer solution and added to wells containing stained cells. Stimulation parameters such as stimulation frequency, pulse duration, stimulation voltage can be easily manipulated to elicit desired responses.
FIG. 40 illustrates an example of how a use-dependent compound such as mibefradil can be detected using this hexyl assay.

[3] = target: potassium inward rectifier channel IRK1 (Rattus norvegicus, UniProt Q64273)
NaV4 sodium channel = assay type: cell-based; conditions: HEK-293 NaV4; 33 V/cm, 10 ms/phase biphasic, 15 Hz burst for 1.5 seconds; read-out: estimated EC50 (Hill function fit)
Description: For this experiment, electrical stimulation parameters were E=33 V/cm, 10 ms/phase biphasic stimulation, 15 Hz burst for 1.5 seconds.
To determine whether the present method is generally applicable to a wide range of different sodium channels, HEK-293 cells were stably transfected with another voltage dependent sodium channel, hereinafter referred to as NaV4. These cells were transfected, selected and loaded with FRET dyes as described in section VI and Example 8.

Nav1.8 [4] = target: Nav1.8 (UniProt Q9Y5Y9); assay: Paired-pulse train stimulation, recovery from block, cells expressing Nav1.8; conditions: for IC50: approximate, from previous experiment
[5] = tested on: sodium channels in dorsal root ganglion (DRG) neurons; assay: Dorsal root ganglion neuron assay, electrical stimulation at different external potassium; assay type: cell-based, rat; conditions: before and after addition of 16 mM potassium
Description: We have developed a dorsal root ganglion (DRG) neuron assay on the electrical stimulation with optical detection platform that allows us to detect and quantify voltage dependent blockers of the sodium channels in these neurons. The DRG neurons were dissociated from neonatal rat pups and stained with FRET voltage sensing dyes. The neurons were then placed in the middle of the well on a 96 well plate and preincubated with varying concentrations of the test compound. Electrical stimulation was applied and the resulting response recorded by the plate reader. Dose response plots were then constructed for each compound tested. Increased levels of potassium were then added to depolarize the neurons and move more of the sodium channels into the inactivated state. […] This estimates the degree of voltage or state dependence for these compounds. […] As shown, the high potassium levels depolarize the cells. The compounds' block is voltage dependent, a type of use-dependent activity. […] This example illustrates also the use of this method with primary neurons.

[6] = tested on: voltage-activated chloride and potassium channels of wild-type HEK-293 cells
Nav 1.2a = Nav 1.2a (Rattus norvegicus, UniProt P04775, N209D); conditions: published; cited from earlier work
[7] = tested on: TTX-resistant Nav channels; conditions: cited from earlier work
Nav1.8 [8] = target: Nav1.8 (UniProt Q9Y5Y9); assay: Induced spontaneous firing of Nav1.8 expressing cells, high-frequency monophasic pulses; assay type: cell-based
[9] = 1 Hz stimulation, 1st peak response
[10] = 1 Hz stimulation, 20th peak response
[11] = read-out: IC50 @ 1st peak, 1 Hz stimulation, 1st peak response
[12] = read-out: IC50 @ 20th peak, 1 Hz stimulation, 20th peak response

Chain of voltage dependent sodium channel (NaV1) endogenously expressed in wild type CHO cells (A0A8C2MK62 1-2006): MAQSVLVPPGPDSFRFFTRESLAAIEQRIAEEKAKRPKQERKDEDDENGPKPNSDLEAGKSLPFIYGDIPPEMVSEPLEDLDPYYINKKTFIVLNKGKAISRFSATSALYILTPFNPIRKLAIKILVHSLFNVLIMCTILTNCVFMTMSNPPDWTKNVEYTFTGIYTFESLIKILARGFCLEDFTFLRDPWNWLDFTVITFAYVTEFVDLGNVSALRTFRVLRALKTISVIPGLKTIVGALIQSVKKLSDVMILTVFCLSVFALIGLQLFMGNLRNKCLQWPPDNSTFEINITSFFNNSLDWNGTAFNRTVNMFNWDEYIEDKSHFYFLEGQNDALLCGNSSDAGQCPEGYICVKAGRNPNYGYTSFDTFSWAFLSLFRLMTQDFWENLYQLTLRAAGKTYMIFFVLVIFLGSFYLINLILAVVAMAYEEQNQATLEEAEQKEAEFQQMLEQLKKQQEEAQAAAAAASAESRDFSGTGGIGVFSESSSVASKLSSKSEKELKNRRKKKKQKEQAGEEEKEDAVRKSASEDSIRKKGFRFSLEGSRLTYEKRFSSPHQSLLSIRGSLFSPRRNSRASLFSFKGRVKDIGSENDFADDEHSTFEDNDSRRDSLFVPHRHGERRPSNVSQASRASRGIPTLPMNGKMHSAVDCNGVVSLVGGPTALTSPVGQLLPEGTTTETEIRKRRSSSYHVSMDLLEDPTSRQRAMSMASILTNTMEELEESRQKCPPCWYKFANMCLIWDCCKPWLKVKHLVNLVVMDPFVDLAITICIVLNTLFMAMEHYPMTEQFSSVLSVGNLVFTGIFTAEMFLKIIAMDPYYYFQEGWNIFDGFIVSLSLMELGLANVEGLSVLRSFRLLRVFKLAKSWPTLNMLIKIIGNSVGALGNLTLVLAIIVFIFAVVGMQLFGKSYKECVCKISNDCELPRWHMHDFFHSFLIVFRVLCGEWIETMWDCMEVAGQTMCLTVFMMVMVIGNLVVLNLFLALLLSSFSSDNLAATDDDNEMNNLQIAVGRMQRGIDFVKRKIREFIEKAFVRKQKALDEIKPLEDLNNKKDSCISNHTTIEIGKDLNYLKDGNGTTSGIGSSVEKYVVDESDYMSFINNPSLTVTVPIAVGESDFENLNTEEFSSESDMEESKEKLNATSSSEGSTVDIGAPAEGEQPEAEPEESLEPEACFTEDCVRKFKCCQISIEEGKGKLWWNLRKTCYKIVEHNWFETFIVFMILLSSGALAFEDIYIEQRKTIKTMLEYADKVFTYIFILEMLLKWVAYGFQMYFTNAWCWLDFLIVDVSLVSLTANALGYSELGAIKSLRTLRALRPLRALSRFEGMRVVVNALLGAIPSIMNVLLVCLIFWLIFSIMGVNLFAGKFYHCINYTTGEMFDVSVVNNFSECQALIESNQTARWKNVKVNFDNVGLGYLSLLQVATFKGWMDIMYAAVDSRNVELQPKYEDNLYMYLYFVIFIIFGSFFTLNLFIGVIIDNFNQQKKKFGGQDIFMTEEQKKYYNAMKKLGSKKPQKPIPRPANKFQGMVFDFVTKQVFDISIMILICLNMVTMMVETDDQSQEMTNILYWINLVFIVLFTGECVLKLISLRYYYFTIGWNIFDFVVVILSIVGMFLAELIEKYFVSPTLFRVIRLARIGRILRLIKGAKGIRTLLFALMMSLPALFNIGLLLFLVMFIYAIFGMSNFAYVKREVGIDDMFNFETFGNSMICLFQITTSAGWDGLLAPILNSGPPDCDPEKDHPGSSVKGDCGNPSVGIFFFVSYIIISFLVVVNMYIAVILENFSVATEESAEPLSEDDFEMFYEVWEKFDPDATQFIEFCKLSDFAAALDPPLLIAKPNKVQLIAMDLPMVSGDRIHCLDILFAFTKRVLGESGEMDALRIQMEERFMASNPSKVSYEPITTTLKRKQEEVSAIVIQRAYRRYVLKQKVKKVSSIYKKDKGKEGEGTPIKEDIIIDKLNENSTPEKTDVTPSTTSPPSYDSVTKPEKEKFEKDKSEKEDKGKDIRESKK
Chain of endogenous NaV channels of Chinese Hamster Ovary cells (Nav 1.2a) (A0A8C2MK62 entry or part of it): as the sequence (A0A8C2MK62 1-2006) above
Chain of Nav 1.2a (P04775 whole entry N209D): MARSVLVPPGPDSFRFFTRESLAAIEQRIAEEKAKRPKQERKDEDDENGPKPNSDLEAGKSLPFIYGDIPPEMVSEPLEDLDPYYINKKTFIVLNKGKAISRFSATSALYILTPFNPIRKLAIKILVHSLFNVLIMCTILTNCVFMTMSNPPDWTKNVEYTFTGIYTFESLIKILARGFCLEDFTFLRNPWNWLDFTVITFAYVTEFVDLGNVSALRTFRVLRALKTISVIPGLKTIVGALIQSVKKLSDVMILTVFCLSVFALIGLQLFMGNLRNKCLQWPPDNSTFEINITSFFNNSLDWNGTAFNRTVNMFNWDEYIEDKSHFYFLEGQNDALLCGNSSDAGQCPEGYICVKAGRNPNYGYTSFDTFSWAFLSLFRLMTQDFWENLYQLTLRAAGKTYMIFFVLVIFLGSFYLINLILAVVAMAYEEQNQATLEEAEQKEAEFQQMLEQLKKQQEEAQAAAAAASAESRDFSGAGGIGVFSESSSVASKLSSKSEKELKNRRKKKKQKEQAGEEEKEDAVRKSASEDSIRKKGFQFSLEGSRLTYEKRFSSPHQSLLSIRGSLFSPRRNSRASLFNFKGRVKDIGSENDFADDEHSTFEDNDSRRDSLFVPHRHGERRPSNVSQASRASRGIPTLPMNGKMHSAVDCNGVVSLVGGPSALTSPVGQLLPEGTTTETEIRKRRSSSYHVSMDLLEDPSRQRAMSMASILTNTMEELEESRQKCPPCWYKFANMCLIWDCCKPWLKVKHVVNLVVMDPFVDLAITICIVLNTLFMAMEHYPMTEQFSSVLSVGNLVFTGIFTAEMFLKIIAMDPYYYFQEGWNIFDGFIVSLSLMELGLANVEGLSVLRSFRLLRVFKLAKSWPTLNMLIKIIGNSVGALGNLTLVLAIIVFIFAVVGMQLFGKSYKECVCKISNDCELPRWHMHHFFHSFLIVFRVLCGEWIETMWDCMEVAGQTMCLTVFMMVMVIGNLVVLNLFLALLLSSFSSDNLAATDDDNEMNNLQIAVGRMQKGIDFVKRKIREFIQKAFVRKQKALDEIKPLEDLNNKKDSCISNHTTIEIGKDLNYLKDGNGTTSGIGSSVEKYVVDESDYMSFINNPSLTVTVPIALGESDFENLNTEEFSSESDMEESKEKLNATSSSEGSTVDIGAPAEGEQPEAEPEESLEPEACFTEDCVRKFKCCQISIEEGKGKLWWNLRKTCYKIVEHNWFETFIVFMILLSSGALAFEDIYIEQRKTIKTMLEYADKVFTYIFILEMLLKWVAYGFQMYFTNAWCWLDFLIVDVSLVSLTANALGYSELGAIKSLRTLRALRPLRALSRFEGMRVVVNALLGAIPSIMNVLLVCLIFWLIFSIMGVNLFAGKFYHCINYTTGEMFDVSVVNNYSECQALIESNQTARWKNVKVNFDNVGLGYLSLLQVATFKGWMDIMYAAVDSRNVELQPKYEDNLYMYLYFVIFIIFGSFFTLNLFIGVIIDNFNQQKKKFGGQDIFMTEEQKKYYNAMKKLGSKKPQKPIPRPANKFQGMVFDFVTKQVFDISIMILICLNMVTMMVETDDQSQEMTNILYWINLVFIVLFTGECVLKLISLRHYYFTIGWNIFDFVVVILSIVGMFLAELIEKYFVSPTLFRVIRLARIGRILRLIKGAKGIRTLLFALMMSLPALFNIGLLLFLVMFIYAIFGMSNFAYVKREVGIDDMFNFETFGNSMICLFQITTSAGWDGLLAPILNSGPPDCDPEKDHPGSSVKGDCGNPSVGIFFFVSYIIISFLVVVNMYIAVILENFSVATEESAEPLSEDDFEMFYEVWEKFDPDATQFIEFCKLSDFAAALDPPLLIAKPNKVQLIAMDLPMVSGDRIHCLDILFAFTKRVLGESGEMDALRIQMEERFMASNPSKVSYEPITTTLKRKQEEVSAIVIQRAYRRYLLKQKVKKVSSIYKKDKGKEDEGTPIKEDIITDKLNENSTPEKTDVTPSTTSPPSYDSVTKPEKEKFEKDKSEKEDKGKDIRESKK
Chain of potassium inward rectifier channel IRK1 (Q64273 whole entry): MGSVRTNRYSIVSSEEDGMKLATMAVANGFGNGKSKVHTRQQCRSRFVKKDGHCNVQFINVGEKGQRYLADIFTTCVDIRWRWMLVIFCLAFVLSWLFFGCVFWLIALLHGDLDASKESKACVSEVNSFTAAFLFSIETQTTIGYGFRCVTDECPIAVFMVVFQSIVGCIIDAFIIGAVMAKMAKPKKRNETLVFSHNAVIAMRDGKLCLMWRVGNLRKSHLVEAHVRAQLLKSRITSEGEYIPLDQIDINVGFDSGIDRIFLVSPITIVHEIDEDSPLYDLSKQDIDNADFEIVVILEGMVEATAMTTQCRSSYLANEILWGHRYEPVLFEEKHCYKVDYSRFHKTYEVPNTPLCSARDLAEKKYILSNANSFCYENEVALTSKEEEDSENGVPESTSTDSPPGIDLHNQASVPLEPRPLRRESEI

NC1=N[C@H](O)[C@H]2[C@H]3O[C@]4(O)O[C@@H]([C@@H](O)[C@@]2(N1)[C@@H]4O)[C@]3(O)CO [TTX, tetrodotoxin]
EC50 (NaV3 sodium channel; read-out: EC50 (Hill function fit)): 0.025 µM
Hill coefficient [1]: 1.47
block of the effect of electrical stimulation [1]: completely block
EC50 ([1]; read-out: EC50 (Hill function fit to dose response)): 0.009 µM
effect on the positive response (HL5 cardiac muscle cells): partially blocks
sustained signal above 50 V/cm (HL5 cardiac muscle cells): unaffected
use-dependent block of endogenous NaV channels [2]: only minor or no use-dependent block; also recorded: least use-dependent

COCC(=O)O[C@]1(CCN(C)CCCc2nc3ccccc3[nH]2)CCc2cc(F)ccc2[C@@H]1C(C)C [mibefradil]
change in response lineshape (N-type calcium channel): use-dependent block

COC(=O)[C@@H]1[C@H]2C[C@H]3c4[nH]c5ccccc5c4CCN3C[C@@H]2CC[C@@H]1O [yohimbine]
UDI (1 Hz), ratio of IC50(1st response) over IC50(20th response) ([2]; 1 Hz for 20 seconds): 5.67
Hill coeff. @ 1st peak [2, 9]: 2.05
IC50 ([2]; 1 Hz stimulation, 1st peak response, read-out: IC50 @ 1st peak): 26.7 ± 7.26 µM
Hill coeff. @ 20th peak [2, 10]: 0.99
IC50 ([2]; 1 Hz stimulation, 20th peak response, read-out: IC50 @ 20th peak): 4.7 ± 1.94 µM

[Ba+2].[Cl-].[Cl-] [barium chloride]
voltage change during stimulation with block [3]: no detectable voltage change

CCCCNc1ccc(C(=O)OCCN(C)C)cc1 [tetracaine]
EC50 (NaV3 sodium channel; read-out: EC50 (fit to dose-response curve), HEK-293 NaV3, 33 V/cm, 10 ms/phase biphasic, 15 Hz burst for 1.5 seconds): 11 µM
EC50 (NaV4 sodium channel): 35 µM
time to recover from use-dependent block (Nav1.8 [4]; 4 μM): approximately 1000 ms
IC50 (Nav1.8 [4]): ~4 µM
shift of dose response curve after elevated potassium [5]: leftward shifted
UDI (1 Hz), ratio of IC50(1st response) over IC50(20th response) ([2]; 1 Hz for 20 seconds): 8.40
use-dependent block of endogenous NaV channels ([2]; 1 Hz for 20 seconds, in words): decreased ratio of last peak response over first peak response and more additional block than TTX and most
Hill coeff. @ 1st peak [2, 9]: 1.81
Hill coeff. @ 20th peak [2, 10]: 0.66
IC50 [2, 11]: 2.77 ± 1.23 µM
IC50 [2, 12]: 0.33 ± 0.2 µM

CC[N+](CC)(CC)CC [TEA, Tetraethylammonium]
effect on the negative voltage response [6]: partially blocks

Cc1cccc(C)c1OCC(C)N (centres unmarked) [mexiletine]
IC50 (Nav 1.2a): 21 to 533 µM
Hill coeff. @ 1st peak [2]: 3.07
Hill coeff. @ 20th peak [2]: 0.98
UDI (1 Hz), ratio of IC50(1st response) over IC50(20th response) [2]: 2.59
IC50 ([2]; read-out: IC50 @ 1st peak): 58.1 ± 11 µM
IC50 ([2]; read-out: IC50 @ 20th peak): 22.5 ± 5.31 µM

CCCCN1CCCCC1C(=O)Nc1c(C)cccc1C (centres unmarked) [Bupivacaine]
firing rate in neuron slice preparation [7]: slower firing rate

Nc1nnc(-c2cccc(Cl)c2Cl)c(N)n1 [lamotrigine]
effect on induced spontaneous firing (Nav1.8 [8]): gradually increased the interspike interval
IC50 (Nav1.8 [4]): ~50 µM
shift of dose response curve after elevated potassium [5]: leftward shifted

CN(C)CCC=C1c2ccccc2CCc2ccccc21 [amitriptyline]
IC50 (Nav 1.2a): 5.5 µM
Hill coeff. @ 1st peak [2]: 2.65
Hill coeff. @ 20th peak [2]: 1.07
UDI (1 Hz), ratio of IC50(1st response) over IC50(20th response) [2]: 3.24
IC50 ([2]; read-out: IC50 @ 1st peak): 5.19 ± 1.57 µM
IC50 ([2]; read-out: IC50 @ 20th peak): 1.6 ± 0.38 µM

CCN(CC)CC(=O)Nc1c(C)cccc1C [Lidocaine]
effect on induced spontaneous firing (Nav1.8 [8]): gradually increased the interspike interval
firing rate in neuron slice preparation [7]: slower firing rate
use-dependent block of endogenous NaV channels [2]: only minor or no use-dependent block

CCCCOc1cc(C(=O)NCCN(CC)CC)c2ccccc2n1 [dibucaine]
UDI (1 Hz), ratio of IC50(1st response) over IC50(20th response) ([2]; 1 Hz for 20 seconds): 2.36
Hill coeff. @ 1st peak [2, 9]: 2.35
Hill coeff. @ 20th peak [2, 10]: 1.19
IC50 [2, 11]: 1.19 ± 0.22 µM
IC50 [2, 12]: 0.51 ± 0.11 µM
